Measurements: PubChem BioAssay AID1919672
Inconclusive results are not listed.

Target: Excitatory amino acid transporter 2 (Homo sapiens) (UniProt P43004)
Experiment: aspartate transport by overexpressed wild-type EAAT2 – HEK293 overexpressing cells, iAspSnFR biosensor, flow cytometry, dose response (AID 1919672)
Details: HEK293 SLC1A2-OE, iAspSnFR aspartate uptake

Chain of Excitatory amino acid transporter 2 (Homo sapiens) (P43004 whole entry, looked up, the tested form may be a part): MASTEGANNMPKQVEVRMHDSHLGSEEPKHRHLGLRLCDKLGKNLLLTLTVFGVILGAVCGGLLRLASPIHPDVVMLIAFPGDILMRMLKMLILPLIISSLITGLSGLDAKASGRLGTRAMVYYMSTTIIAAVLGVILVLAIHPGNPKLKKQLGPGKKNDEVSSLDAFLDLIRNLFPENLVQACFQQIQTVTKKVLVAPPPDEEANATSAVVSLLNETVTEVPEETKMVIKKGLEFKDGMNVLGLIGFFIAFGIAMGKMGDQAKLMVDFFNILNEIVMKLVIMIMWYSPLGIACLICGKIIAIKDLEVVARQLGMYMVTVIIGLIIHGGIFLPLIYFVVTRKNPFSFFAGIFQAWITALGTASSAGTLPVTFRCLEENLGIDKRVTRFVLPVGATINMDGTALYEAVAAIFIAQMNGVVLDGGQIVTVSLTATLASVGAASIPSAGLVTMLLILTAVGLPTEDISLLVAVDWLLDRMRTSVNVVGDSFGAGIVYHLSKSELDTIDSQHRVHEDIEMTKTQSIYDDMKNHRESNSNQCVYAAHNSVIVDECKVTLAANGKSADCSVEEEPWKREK

- EC50: 11 µM
Compound: N[C@@H](CC(=O)O)C(=O)O
